Laboratory results published in the supplement of paper PMC10307832.

Tests used:
Experiment in all cases: relative viability (nuclei count vs DMSO), 5 days (fraction); higher = more cells survive
[1] = compound: CN(C)CC1=CC(=CC=C1)N=C(C2=CC=CC=C2)C3=C(NC4=C3C=CC(=C4)C(=O)N(C)C)O
How it was run: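 A plate was accepted only when its control CV was below 25% and the cells had doubled at least once. Viability is defined from nuclear counts as treated wells divided by vehicle wells, with the median taken across plates. That median covers lung cancer cell lines grown in 1536-well plates, dosed by pinning at five √10-spaced library-drug concentrations, and counted in MetaXpress from 4× Hoechst images after 5 days.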

[2] = compound: CN(C)CC1=CC(=CC=C1)N=C(C2=CC=CC=C2)C3=C(NC4=C3C=CC(=C4)C(=O)N(C)C)O + N=C(N)NC(=N)NCCc1ccccc1 [Phenformin] (partner 250 µM)
How it was run: (§1)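 One day after seeding in 1536-well plates, lung cancer cell lines were dosed by pin tool. Dosing was either single-drug or a fixed anchor-drug dose plus five library-drug doses (not always all listed) in √10 steps. After 5 days, nuclei were stained in one fix-and-stain step and counted on 4× images, and relative viability is the nuclei count of treated wells over that of vehicle wells, given as the median of duplicate plates.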

[3] = compound: CN(C)CC1=CC(=CC=C1)N=C(C2=CC=CC=C2)C3=C(NC4=C3C=CC(=C4)C(=O)N(C)C)O + CC(=O)Nc1cccc(-n2c(=O)n(C3CC3)c(=O)c3c(Nc4ccc(I)cc4F)n(C)c(=O)c(C)c32)c1 [Trametinib] (partner 0.02 µM)
How it was run: as §1

[4] = compound: CN(C)CC1=CC(=CC=C1)N=C(C2=CC=CC=C2)C3=C(NC4=C3C=CC(=C4)C(=O)N(C)C)O + O=C(c1cc(Cc2n[nH]c(=O)c3ccccc23)ccc1F)N1CCN(C(=O)C2CC2)CC1 [Olaparib] (partner 8 µM)
How it was run: as §1

| Cell Line | relative viability ([1]; 0.08 µM) | relative viability ([1]; 0.253 µM) | relative viability ([1]; 0.8 µM) | relative viability ([1]; 2.53 µM) | relative viability ([1]; 8 µM) | relative viability ([2]; first compound 0.08 µM) | relative viability ([2]; first compound 0.253 µM) | relative viability ([2]; first compound 0.8 µM) | relative viability ([2]; first compound 2.53 µM) | relative viability ([2]; first compound 8 µM) | relative viability ([3]; first compound 0.08 µM) | relative viability ([3]; first compound 0.253 µM) | relative viability ([3]; first compound 0.8 µM) | relative viability ([3]; first compound 2.53 µM) | relative viability ([3]; first compound 8 µM) | relative viability ([4]; first compound 0.08 µM) | relative viability ([4]; first compound 0.253 µM) | relative viability ([4]; first compound 0.8 µM) | relative viability ([4]; first compound 2.53 µM) | relative viability ([4]; first compound 8 µM) |
| --- | --- | --- | --- | --- | --- | --- | --- | --- | --- | --- | --- | --- | --- | --- | --- | --- | --- | --- | --- | --- |
| NCI-H2023 | 0.966 | 0.905 | 1.01 | 0.789 | 0.79 | 0.377 | 0.392 | 0.405 | 0.338 | 0.342 | 0.639 | 0.557 | 0.556 | 0.545 | 0.471 | 0.539 | 0.525 | 0.473 | 0.416 | 0.414 |
| NCI-H650 | 0.941 | 1.02 | 1.1 | 0.963 | 0.782 | 0.49 | 0.495 | 0.459 | 0.43 | 0.433 | 0.974 | 1.17 | 0.975 | 0.812 | 0.964 | 0.418 | 0.395 | 0.448 | 0.359 | 0.406 |
| NCI-H1793 | 1.01 | 1.07 | 0.773 | 1.05 | 0.839 | 0.405 | 0.394 |  | 0.324 | 0.284 | 0.426 | 0.418 | 0.433 | 0.381 | 0.445 | 0.924 | 0.774 | 0.678 | 0.95 | 0.758 |
| NCI-H1651 | 1.01 | 0.954 | 1.04 | 0.897 | 0.978 | 0.346 | 0.343 | 0.349 | 0.292 | 0.329 | 0.857 | 0.819 | 0.863 | 0.851 | 0.788 | 0.19 | 0.203 | 0.195 | 0.188 | 0.181 |
| NCI-H1395 | 0.87 | 0.976 | 1.04 | 0.774 | 0.875 | 0.377 | 0.488 | 0.465 | 0.417 | 0.417 | 0.983 | 0.96 | 1.16 | 1 | 0.892 | 0.499 | 0.445 | 0.416 | 0.492 | 0.448 |
| NCI-H1437 | 1.05 | 0.977 | 1.04 | 1.02 | 1.05 | 0.269 | 0.298 | 0.335 | 0.349 | 0.36 | 0.574 | 0.53 | 0.475 | 0.572 | 0.656 | 0.621 | 0.659 | 0.634 | 0.622 | 0.635 |
| HOP-62 | 1.05 | 0.965 | 1.04 | 0.981 | 0.97 | 0.7 | 0.64 | 0.677 | 0.601 | 0.629 | 0.363 | 0.361 | 0.391 | 0.362 | 0.339 | 0.373 | 0.327 | 0.361 | 0.251 | 0.504 |
| NCI-H2347 | 0.996 | 1.08 | 0.971 | 1 | 1.09 | 0.436 | 0.46 | 0.368 | 0.454 | 0.467 | 0.301 | 0.26 | 0.278 | 0.252 | 0.33 | 0.536 | 0.584 | 0.593 | 0.572 | 0.575 |
| NCI-H2170 | 0.952 | 0.981 | 0.812 | 1.02 | 0.915 | 0.404 | 0.4 | 0.408 | 0.381 | 0.384 | 0.899 | 0.892 | 0.758 | 0.917 | 0.809 | 0.672 | 0.552 | 0.491 | 0.535 | 0.554 |
| EPLC-272H | 0.837 | 1 | 0.838 | 1.15 | 0.792 | 0.323 | 0.283 | 0.226 | 0.302 | 0.347 | 0.335 | 0.318 | 0.289 | 0.304 | 0.266 | 0.696 | 0.888 | 0.689 | 0.664 | 0.583 |
| NCI-H522 | 1.1 | 1.01 | 0.829 | 0.958 | 0.913 | 0.688 | 0.646 | 0.66 | 0.621 | 0.655 | 0.709 | 0.84 | 0.735 | 0.746 | 0.667 | 0.573 | 0.663 | 0.545 | 0.713 | 0.622 |
| NCI-H2405 | 1.02 | 1.01 | 1.01 | 0.902 | 0.979 | 0.358 | 0.387 | 0.378 | 0.347 | 0.249 | 0.642 | 0.634 | 0.593 | 0.605 | 0.535 | 0.888 | 0.896 | 0.935 | 0.753 | 0.757 |
| SW 1573 | 0.983 | 1.08 | 0.978 | 0.935 | 0.853 | 0.322 | 0.31 | 0.378 | 0.294 | 0.31 | 0.56 | 0.572 | 0.587 | 0.637 | 0.515 | 0.362 | 0.416 | 0.419 | 0.523 | 0.377 |
| NCI-H358 | 0.94 | 0.789 | 0.705 | 0.879 | 0.784 | 0.349 | 0.343 | 0.201 | 0.303 | 0.313 | 0.146 | 0.171 | 0.125 | 0.092 | 0.129 | 0.598 | 0.661 | 0.546 | 0.527 | 0.528 |
| LCLC-97TM1 | 0.907 | 1.04 | 1.02 | 1.13 | 1.13 | 0.466 | 0.408 | 0.475 | 0.438 | 0.422 | 0.231 | 0.222 | 0.2 | 0.191 | 0.176 | 0.485 | 0.392 | 0.442 | 0.391 | 0.433 |
| HCC-366 | 1 | 0.985 | 1.01 | 0.978 | 0.955 | 0.648 | 0.612 | 0.641 | 0.566 | 0.601 | 0.47 | 0.323 | 0.325 | 0.339 | 0.24 | 0.339 | 0.371 | 0.437 | 0.347 | 0.304 |
